Paper PMC8711236 (Biochemistry, 2021)

Target: Cytochrome P450 3A4 (CYP3A4) (Homo sapiens, UniProt P08684)
Test: UV-vis spectral equilibrium titration
Assay type: binding

Cytochrome P450 3A4 (CYP3A4), sequence (P08684 14-503): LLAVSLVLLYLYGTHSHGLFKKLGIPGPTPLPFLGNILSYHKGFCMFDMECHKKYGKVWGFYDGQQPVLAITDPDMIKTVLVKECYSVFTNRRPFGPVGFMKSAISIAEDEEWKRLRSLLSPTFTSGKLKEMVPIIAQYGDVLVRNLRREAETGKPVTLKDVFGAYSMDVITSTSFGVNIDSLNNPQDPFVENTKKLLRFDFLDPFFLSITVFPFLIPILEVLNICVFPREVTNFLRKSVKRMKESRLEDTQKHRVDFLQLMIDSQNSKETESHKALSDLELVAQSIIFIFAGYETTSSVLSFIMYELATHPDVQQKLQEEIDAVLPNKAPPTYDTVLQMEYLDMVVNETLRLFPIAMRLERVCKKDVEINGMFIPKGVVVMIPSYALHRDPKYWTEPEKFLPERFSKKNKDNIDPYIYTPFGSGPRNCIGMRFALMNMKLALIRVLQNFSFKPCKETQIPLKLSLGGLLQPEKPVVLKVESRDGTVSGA
Cytochrome P450 3A4 (CYP3A4), sequence (P00388 2-678 partner): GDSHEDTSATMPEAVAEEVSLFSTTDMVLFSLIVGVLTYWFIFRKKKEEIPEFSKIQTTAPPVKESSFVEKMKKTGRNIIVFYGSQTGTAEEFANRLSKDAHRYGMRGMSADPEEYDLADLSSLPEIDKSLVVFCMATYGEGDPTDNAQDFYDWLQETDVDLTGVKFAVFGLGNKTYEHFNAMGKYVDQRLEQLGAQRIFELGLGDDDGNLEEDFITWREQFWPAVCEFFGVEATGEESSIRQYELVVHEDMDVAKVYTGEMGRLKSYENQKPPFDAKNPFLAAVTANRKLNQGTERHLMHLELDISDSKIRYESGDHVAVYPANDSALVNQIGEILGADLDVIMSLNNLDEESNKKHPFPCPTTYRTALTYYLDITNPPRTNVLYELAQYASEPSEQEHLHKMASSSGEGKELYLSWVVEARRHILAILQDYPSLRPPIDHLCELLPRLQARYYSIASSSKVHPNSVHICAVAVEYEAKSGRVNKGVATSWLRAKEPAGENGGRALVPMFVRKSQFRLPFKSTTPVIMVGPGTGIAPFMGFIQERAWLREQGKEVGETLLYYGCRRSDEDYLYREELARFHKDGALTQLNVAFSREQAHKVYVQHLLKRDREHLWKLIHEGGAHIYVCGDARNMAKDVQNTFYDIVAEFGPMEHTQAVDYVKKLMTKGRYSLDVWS

Molecule `CC(=O)[C@H]1CC[C@H]2[C@@H]3CCC4=CC(=O)CC[C@]4(C)[C@H]3CC[C@]12C` [PRG, progesterone] has a Kd of 35 µM.
